The text below walks through data of patent US9161536B2, “Herbicidal compositions comprising 4-amino-3-chloro-6-(4-chloro-2-fluoro-3-methoxyphenyl)-5-fluoropyridine-2-carboxylic acid or a derivative thereof and flurtamone, diflufenican, or picolinafen” (Dow AgroSciences LLC, priority 2012, dated 2015).

Type in all cases: in vivo
Assay [1] relates to Cirsium arvense (L.) Scop., Canada thistle (CIRAR). In words: greenhouse trial, foliar applied compositions, CIRAR. The source says:
(§1) More specifically, the following equation is used to calculate the expected activity of mixtures containing two herbicical active ingredients: Expected=A+B−(A×B/100) • A=observed efficacy of a first active ingredient at the same concentration as used in the mixture; • B=observed efficacy of the second active ingredient (or product, which may be a combination of active ingredients) at the same concentration as used in the mixture.
(§2) Results in Tables 1-8 are greenhouse trial results for foliar applied compositions.
(§3) • g/ha=grams acid equivalent per hectare (g ae/ha) for Cmpd 1 and grams active ingredient per hectare (g ai/ha) for diflufenican, picolinafen, BACARA® and BACARA® FORTE • Obs=observed value • Exp=expected value as calculated by the equations set forth above in paragraph [0024]. • Cmpd 1=benzyl 4-amino-3-chloro-6-(4-chloro-2-fluoro-3-methoxyphenyl)-5-fluoropyridine-2-carboxylate

The test system of assay [2] is Triticum aestivum (spring), spring wheat (TRZAS). In words: greenhouse trial, foliar applied compositions, TRZAS.
Text: as §1, §2, §3

The subject of assay [3] is Stellaria media (L.) Vill., common chickweed (STEME). In words: greenhouse trial, foliar applied compositions, STEME.
Text: as §1
In some embodiments, the methods provided herein are utilized to control undesirable vegetation in cereals. In certain embodiments, the undesirable vegetation is Alopecurus myosuroides Huds. (blackgrass, ALOMY), Apera spica venti (L.) Beauv. (windgrass, APESV), Avena fatua L. (wild oat, AVEFA), Bromus tectorum L. (downy brome, BROTE), Lolium multiflorum Lam. (Italian ryegrass, LOLMU), Lolium rigidum (rigid ryegrass), Lolium multiflorum subsp. Gaudini (annual ryegrass, LOLMG), Phalaris minor Retz. […]
as §3

The subject of assay [4] is Lamium purpureum L., purple deadnettle (LAMPU). Kind of assay: greenhouse trial, foliar applied compositions, LAMPU.
Text: as §1, §2, §3

Assay [5] deals with Veronica persica Poir., Persian speedwell (VERPE). Kind of assay: greenhouse trial, foliar applied compositions, VERPE.
Text: as §1, §2, §3

Assay [6] relates to Viola tricolor L., wild violet (VIOTR). In words: greenhouse trial, foliar applied compositions, VIOTR.
Text: as §1, §2, §3

The subject of assay [7] is Galium aparine L., catchweed bedstraw (GALAP). In words: greenhouse trial, foliar applied compositions, GALAP.
Text: as §1, §2, §3

The subject of assay [8] is Sinapis arvensis L., wild mustard (SINAR). In words: greenhouse trial, foliar applied compositions, SINAR.
Text: as §1, §2, §3

In assay [9] the test system is Papaver rhoeas L., common poppy (PAPRH). In words: greenhouse trial, foliar applied compositions, PAPRH.
Text: as §1, §2, §3

In assay [10] the test system is Kochia scoparia (L.) Schrad., kochia (KCHSC). Kind of assay: greenhouse trial, foliar applied compositions, KCHSC.
Text: as §1, §2, §3

Assay [11] relates to Chenpodium album L., common lambsquarters (CHEAL). Kind of assay: greenhouse trial, foliar applied compositions, CHEAL.
Text: as §1, §2, §3

Assay [12] concerns Salsola tragus L., Russian thistle (SASKR). In words: greenhouse trial, foliar applied compositions, SASKR.
Text: as §1, §2, §3

The subject of assay [13] is Matricaria recutita L., wild chamomile (MATCH). In words: greenhouse trial, foliar applied compositions, MATCH.
Text: as §1, §2, §3

The subject of assay [14] is Hordeum vulgare L., spring barley (HORVS). In words: greenhouse trial, foliar applied compositions, HORVS.
Text: as §1, §2, §3

Structures are written as SMILES.

`COc1c(Cl)ccc(-c2nc(C(=O)OCc3ccccc3)c(Cl)c(N)c2F)c1F` [Cmpd 1, benzyl 4-amino-3-chloro-6-(4-chloro-2-fluoro-3-methoxyphenyl)-5-fluoropyridine-2-carboxylate]: the “CIRAR Obs” value stood at 10 in assay [1] (Cmpd 1 2.5 g ae/ha alone) and 20 in assay [1] (Cmpd 1 5 g ae/ha alone). For the same compound, the figures for the “TRZAS Obs” value in [2] (Cmpd 1 2.5 g ae/ha alone) and in assay [2] (Cmpd 1 5 g ae/ha alone) were 0 and 5, respectively. The “STEME Obs” value in assay [3] (Cmpd 1 2.5 g ae/ha alone) is given as 20; in [3] (Cmpd 1 5 g ae/ha alone), 30. Further, the “LAMPU Obs” value in assay [4] (Cmpd 1 2.5 g ae/ha alone) and in assay [4] (Cmpd 1 5 g ae/ha alone) was 80 in each case. Besides, the “VERPE Obs” value in assay [5] (Cmpd 1 2.5 g ae/ha alone) is listed as 0; in [5] (Cmpd 1 5 g ae/ha alone), 5. Moreover, the “VIOTR Obs” value in assay [6] (Cmpd 1 2.5 g ae/ha alone) and in assay [6] (Cmpd 1 5 g ae/ha alone) was 10 in each case. The “GALAP Obs” value in assay [7] (Cmpd 1 2.5 g ae/ha alone) and in [7] (Cmpd 1 5 g ae/ha alone) was 60 each time. Also, the “SINAR Obs” value is 60 in assay [8] (Cmpd 1 2.5 g ae/ha alone) and 70 in assay [8] (Cmpd 1 5 g ae/ha alone). The figures for the “PAPRH Obs” value in assay [9] (Cmpd 1 2.5 g ae/ha alone) and in [9] (Cmpd 1 5 g ae/ha alone) were 20 and 70, respectively. The “KCHSC Obs” value in assay [10] (Cmpd 1 2.5 g ae/ha alone) is recorded as 20; in assay [10] (Cmpd 1 5 g ae/ha alone), 40. Moreover, the “CHEAL Obs” value is 50 in assay [11] (Cmpd 1 2.5 g ae/ha alone) and 60 in assay [11] (Cmpd 1 5 g ae/ha alone). In addition, the “SASKR Obs” value stood at 10 in assay [12] (Cmpd 1 2.5 g ae/ha alone) and 60 in assay [12] (Cmpd 1 5 g ae/ha alone). Moreover, the results for the “MATCH Obs” value in assay [13] (Cmpd 1 2.5 g ae/ha alone) and in assay [13] (Cmpd 1 5 g ae/ha alone) were 0 and 10, respectively. The “HORVS Obs” value in assay [14] (Cmpd 1 2.5 g ae/ha alone) and in assay [14] (Cmpd 1 5 g ae/ha alone) was 0 each time.

For the compound `O=C(Nc1ccc(F)cc1)c1cccc(Oc2cccc(C(F)(F)F)c2)n1` [Picolinafen, N-(4-fluorophenyl)-6-[3-(trifluoromethyl)phenoxy]-2-pyridinecarboxamide], in assay [1] (Picolinafen 50 g ai/ha alone), the “CIRAR Obs” value stood at 15. Besides, in assay [2] (Picolinafen 50 g ai/ha alone), the “TRZAS Obs” value worked out at 10. Moreover, the “LAMPU Obs” value in assay [4] (Picolinafen 50 g ai/ha alone) was determined as 0. The “VERPE Obs” value in [5] (Picolinafen 50 g ai/ha alone) is listed as 10. For the same compound, the “VIOTR Obs” value in [6] (Picolinafen 50 g ai/ha alone) stood at 10. For the same compound, the “SINAR Obs” value in assay [8] (Picolinafen 50 g ai/ha alone) stood at 70. Moreover, in assay [10] (Picolinafen 50 g ai/ha alone), the “KCHSC Obs” value is 20. The “CHEAL Obs” value in assay [11] (Picolinafen 50 g ai/ha alone) was found to be 70. In addition, the “SASKR Obs” value in assay [12] (Picolinafen 50 g ai/ha alone) is given as 30. For the same compound, the “MATCH Obs” value in [13] (Picolinafen 50 g ai/ha alone) is on record as 0. Also, the “HORVS Obs” value in assay [14] (Picolinafen 50 g ai/ha alone) was found to be 10.

Regarding `O=C(Nc1ccc(F)cc1F)c1cccnc1Oc1cccc(C(F)(F)F)c1` [Diflufenican, N-(2,4-difluorophenyl)-2-[3-(trifluoromethyl)phenoxy]-3-pyridinecarboxamide], the “CIRAR Obs” value in [1] (Diflufenican 50 g ai/ha alone) was found to be 0. The “TRZAS Obs” value in assay [2] (Diflufenican 50 g ai/ha alone) was determined as 5. Moreover, in assay [4] (Diflufenican 50 g ai/ha alone), the “LAMPU Obs” value is recorded as 0. The “VERPE Obs” value in [5] (Diflufenican 50 g ai/ha alone) is reported as 10. Besides, in [6] (Diflufenican 50 g ai/ha alone), the “VIOTR Obs” value stood at 15. For the same compound, the “GALAP Obs” value in assay [7] (Diflufenican 50 g ai/ha alone) is given as 0. Moreover, the “SINAR Obs” value in [8] (Diflufenican 50 g ai/ha alone) came to 30. Also, the “PAPRH Obs” value in assay [9] (Diflufenican 50 g ai/ha alone) was 0. Moreover, the “KCHSC Obs” value in assay [10] (Diflufenican 50 g ai/ha alone) is reported as 40. Further, the “CHEAL Obs” value in assay [11] (Diflufenican 50 g ai/ha alone) is recorded as 10. The “SASKR Obs” value in [12] (Diflufenican 50 g ai/ha alone) is reported as 70. Moreover, in assay [13] (Diflufenican 50 g ai/ha alone), the “MATCH Obs” value came to 0. Moreover, the “HORVS Obs” value in [14] (Diflufenican 50 g ai/ha alone) is listed as 5.
